Data published in patent US20240041042A1, “1-(PYRIDYL)-5-AZINYLPYRAZOLE DERIVATIVES, AND THEIR USE FOR CONTROL OF UNDESIRED PLANT GROWTH” (Bayer Aktiengesellschaft, priority 2020, published 2024).
Where two headings read alike, the source gives them in different places. One block for each compound: values may come before it.

How the values were obtained:
Assay type in all cases: in vivo
[1] = system: Abutilon theophrasti (ABUTH); assay: Post-emergence herbicidal action against ABUTH; settings: 320 g/ha, visual rating about 3 weeks after treatment vs untreated controls (100% = plants have died, 0% = like control plants)
Procedure, shortened: (§1)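 Post-emergence greenhouse spray, one-leaf stage, 600 l/ha water plus 0.5% additive; WP or EC formulations; application rates 320 g/ha or lower. Visual % damage vs untreated controls at ~3 weeks.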

[2] = system: Pharbitis purpurea (PHBPU); assay: Post-emergence herbicidal action against PHBPU; settings: dosage 320 g/ha
Procedure, shortened: as §1

[3] = system: Polygonum convolvulus (POLCO); assay: Post-emergence herbicidal action against POLCO; settings: dosage 320 g/ha
Procedure, shortened: as §1

[4] = system: Verconica persica (VERPE); assay: Post-emergence herbicidal action against VERPE; settings: 320 g/ha, VERPE
Procedure, shortened: as §1

Viola tricolor (VIOTR) [5] = assay: Post-emergence herbicidal action against VIOTR; settings: 320 g/ha
Procedure, shortened: as §1

[6] = system: Triticum aestivum (TRZAS); settings: crop plant compatibility, effect vs untreated controls
Procedure, shortened: (§2)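 One-leaf-stage crops (2–3 wk post-sowing, sandy loam, greenhouse) sprayed on green parts; 0.5% additive, 600 l/ha water. Rated by eye ~3 wk later, % vs untreated; suffixes a/b/c mark different dosages.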

Zea mays (ZEAMX) [7] = settings: for Post-emergence action against ZEAMX in % (crop plant compatibility): 20 g/ha, effect in comparison to untreated controls
Procedure, shortened: as §2

Glycine max (GLXMA) [8] = assay: Post-emergence crop plant compatibility, GLXMA; settings: post-emergence, 20 g/ha, effect in comparison to untreated controls
Protocol: Seeds of monocotyledonous and dicotyledonous weeds and crop plants are placed in sandy loam in plastic or organic planting pots, covered with soil and cultivated in a greenhouse under controlled growth conditions. 2 to 3 weeks after sowing, the test plants are treated at the one-leaf stage. The compounds of the invention, formulated in the form of wettable powders (WP) or as emulsion concentrates (EC), are then sprayed onto the green parts of the plants as aqueous suspension or emulsion with addition of 0.5% additive at a water application rate of 600 l/ha (converted). After the test plants have been kept in the greenhouse under optimum growth conditions for about 3 weeks, the activity of the preparations is rated visually in comparison to untreated controls. For example, 100% activity=the plants have died, 0% activity=like control plants.
The observed effects on selected crop plants are reported here in comparison to the untreated controls (values in %). The appendices “a”, “b” and “c” give differentiation by dosage used with otherwise the same crop plants tested.

[9] = system: Abutilon theophrasti (ABUTH); assay: Pre-emergence herbicidal action against ABUTH; settings: Dosage column 320 g/ha (title prints 3200 g/ha); scored visually after about 3 weeks; 100% = plants have died
Procedure, shortened: (§3)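 Herbicide applied to soil before seedling emergence, at 600 l/ha spray volume with 0.5% additive and rates up to 320 g/ha. Evaluation: visual percentage effect, about 3 weeks later, greenhouse-grown pots compared with untreated ones.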

[10] = system: Alopecurus myosuroides (ALOMY); assay: Pre-emergence herbicidal action against ALOMY; settings: scored visually after about 3 weeks, 100% = plants have died
Procedure, shortened: as §3

[11] = system: Amaranthus retroflexus (AMARE); assay: Pre-emergence herbicidal action against AMARE; settings: visual scoring after about 3 weeks vs untreated controls
Procedure, shortened: as §3

Avena fatua (AVEFA) [12] = assay: Pre-emergence herbicidal action against AVEFA; settings: 320 g/ha, visual scoring after about 3 weeks vs untreated controls
Procedure, shortened: as §3

[13] = system: Digitaria sanguinalis (DIGSA); assay: Pre-emergence herbicidal action against DIGSA
Procedure, shortened: as §3

[14] = system: Echinochloa crus-galli (ECHCG); assay: Pre-emergence herbicidal action against ECHCG; settings: dosage 320 g/ha
Procedure, shortened: as §3

Lolium rigidum (LOLRI) [15] = assay: Pre-emergence herbicidal action against LOLRI; settings: dosage 320 g/ha
Procedure, shortened: as §3

[16] = system: Matricaria inodora (MATIN); assay: Pre-emergence herbicidal action against MATIN
Procedure, shortened: as §3

[17] = system: Polygonum convolvulus (POLCO); assay: Pre-emergence herbicidal action against POLCO; settings: dosage 320 g/ha
Procedure, shortened: as §3

Setaria viridis (SETVI) [18] = assay: Pre-emergence herbicidal action against SETVI; settings: dosage 320 g/ha
Procedure, shortened: as §3

[19] = system: Verconica persica (VERPE); assay: Pre-emergence herbicidal action against VERPE; settings: dosage 320 g/ha
Procedure, shortened: as §3

Viola tricolor (VIOTR) [20] = assay: Pre-emergence herbicidal action against VIOTR; settings: 320 g/ha, Viola tricolor
Procedure, shortened: as §3

Brassica napus (BRSNW) = settings: crop plant compatibility, in comparison to untreated controls
Procedure, shortened: (§4)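 Scoring: visual, % of untreated control, about 3 weeks after a pre-emergence application to the soil surface. Application used WP or EC formulations diluted in water with 0.5% additive at 600 l/ha; dosage levels are marked by suffixes a, b and c.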

Glycine max (GLXMA) [21] = settings: crop plant compatibility
Procedure, shortened: as §4

Oryza sativa (ORYSA) [22] = settings: crop plant compatibility
Procedure, shortened: as §4

[23] = system: Triticum aestivum (TRZAS); settings: crop plant compatibility
Procedure, shortened: as §4

Zea mays (ZEAMX) [24] = settings: 20 g/ha; crop plant compatibility, effect vs untreated controls
Procedure, shortened: as §4

[25] = system: Alopecurus myosuroides (ALOMY); assay: Post-emergence herbicidal action against ALOMY; settings: visual rating about 3 weeks after treatment vs untreated controls (100% = plants have died, 0% = like control plants)
Procedure, shortened: as §1

Avena fatua (AVEFA) [26] = assay: Post-emergence herbicidal action against AVEFA; settings: visual rating about 3 weeks after treatment
Procedure, shortened: as §1

[27] = system: Digitaria sanguinalis (DIGSA); assay: Post-emergence herbicidal action against DIGSA; settings: visual rating about 3 weeks after treatment
Procedure, shortened: as §1

Lolium rigidum (LOLRI) [28] = assay: Post-emergence herbicidal action against LOLRI; settings: dosage 320 g/ha
Procedure, shortened: as §1

Setaria viridis (SETVI) [29] = assay: Post-emergence herbicidal action against SETVI
Procedure, shortened: as §1

Oryza sativa (ORYSA) [30] = settings: crop plant compatibility; remark: listed apart in the source
Procedure, shortened: as §2

[31] = 20 g/ha, effect vs untreated controls
[32] = pre-emergence, 80 g/ha, in comparison to untreated controls

Post-emergence action against TRZAS in % ([6]; 20 g/ha): 0%
Post-emergence action against TRZAS in % ([6]; 80 g/ha): 0%
Post-emergence action against ZEAMX in % (crop plant compatibility) (Zea mays (ZEAMX) [7]): 0%
Post-emergence action against ZEAMX in % (Zea mays (ZEAMX) [7]; crop plant compatibility, 80 g/ha, effect vs untreated controls): 0%
Post-emergence action against GLXMA in % (Glycine max (GLXMA) [8]): 0%
Compound: COC(=O)CCOC(=O)COc1nn(-c2ccccn2)c(-c2ccc(F)nc2)c1C1CC1(F)F (centres unmarked) [Example I-261]
Post-emergence action against ABUTH in % [1]: 80%
Post-emergence action against PHBPU in % [2]: 80%
Post-emergence action against POLCO in % [3]: 80%
Post-emergence action against VERPE in % [4]: 80%
Post-emergence action against VIOTR in % (Viola tricolor (VIOTR) [5]): 80%

Pre-emergence action against BRSNW in % (Brassica napus (BRSNW); 20 g/ha): 10%
Pre-emergence action against BRSNW in % (Brassica napus (BRSNW); 80 g/ha): 10%
Pre-emergence action against BRSNW in % (Brassica napus (BRSNW); 320 g/ha): 20%
Pre-emergence action against GLXMA (Glycine max (GLXMA) [21]; [31]): 10%
Pre-emergence action against GLXMA in % (Glycine max (GLXMA) [21]; [32]): 10%
Pre-emergence action against ORYSA (Oryza sativa (ORYSA) [22]; [31]): 0%
Pre-emergence action against ORYSA in % (Oryza sativa (ORYSA) [22]; [32]): 10%
Pre-emergence action against TRZAS [23, 31]: 10%
Pre-emergence action against TRZAS in % [23, 32]: 20%
Pre-emergence action against ZEAMX (Zea mays (ZEAMX) [24]): 10%
Post-emergence action against ORYSA in % (Oryza sativa (ORYSA) [30]; [31]): 0%
Post-emergence action against ORYSA in % (Oryza sativa (ORYSA) [30]; 80 g/ha, effect in comparison to untreated controls): 10%
Post-emergence action against ZEAMX in % (crop plant compatibility) (Zea mays (ZEAMX) [7]): 0%
Compound: C[C@@H](Oc1nn(-c2ccc(F)cn2)c(-c2cncc(F)c2)c1Br)C(=O)O [Example I-13]
Pre-emergence action against ABUTH [9]: 90%
Pre-emergence action against ALOMY ([10]; 80 g/ha): 90%
Pre-emergence action against ALOMY ([10]; 320 g/ha): 100%
Pre-emergence action against AMARE in % ([11]; 80 g/ha): 90%
Pre-emergence action against AMARE in % ([11]; 320 g/ha): 100%
Pre-emergence action against AVEFA in % (Avena fatua (AVEFA) [12]): 90%
Pre-emergence action against DIGSA in % ([13]; 80 g/ha, visual scoring after about 3 weeks vs untreated controls): 100%
Pre-emergence action against DIGSA in % ([13]; dosage 320 g/ha): 100%
Pre-emergence action against ECHCG in % [14]: 90%
Pre-emergence action against LOLRI in % (Lolium rigidum (LOLRI) [15]): 90%
Pre-emergence action against MATIN in % ([16]; dosage 80 g/ha): 80%
Pre-emergence action against MATIN in % ([16]; dosage 320 g/ha): 80%
Pre-emergence action against POLCO in % [17]: 100%
Pre-emergence action against SETVI in % (Setaria viridis (SETVI) [18]): 90%
Pre-emergence action against VERPE in % [19]: 80%
Pre-emergence action against VIOTR in % (Viola tricolor (VIOTR) [20]): 90%
Post-emergence action against ALOMY in % ([25]; 80 g/ha): 90%
Post-emergence action against ALOMY in % ([25]; 320 g/ha): 90%
Post-emergence action against AVEFA in % (Avena fatua (AVEFA) [26]; 80 g/ha): 80%
Post-emergence action against AVEFA in % (Avena fatua (AVEFA) [26]; 320 g/ha): 90%
Post-emergence action against DIGSA in % ([27]; 80 g/ha): 90%
Post-emergence action against DIGSA in % ([27]; 320 g/ha): 90%
Post-emergence action against LOLRI in % (Lolium rigidum (LOLRI) [28]): 90%
Post-emergence action against SETVI in % (Setaria viridis (SETVI) [29]; dosage 80 g/ha): 80%
Post-emergence action against SETVI in % (Setaria viridis (SETVI) [29]; dosage 320 g/ha): 90%
Post-emergence action against VERPE in % [4]: 80%
Post-emergence action against VIOTR in % (Viola tricolor (VIOTR) [5]): 80%
